The structures appear in SMILES notation. Where only a bound is given, the exact number is not on record here.

The source of these data is US11261425B2, “Method for inducing differentiation of pluripotent stem cells into neural precursor cells” (Kyoto University, priority 2009, dated 2022).

Type in all cases: cell-based, Human
For experiment [1], the system named is KhES-1, KhES-2, KhES-3, G1, G4, B6, and B7. Nature of the experiment: SDIA method, colony counts per well in 7 ES/iPS cell lines. Conditions: day 14, 7 cell lines; for Number of colonies per well compared with control group or Noggin group: n=28. The protocol:
When at least one positive cell could be confirmed within a colony, such colony was counted as a positive colony. […] Biochem Biophys Res Commun. 345: 926-32, 2006). Human iPS cells (G1, G4, B6, and B7) were provided by Dr. Yamanaka of Kyoto University and then cultured by the known method (Takahashi K, et al. Cell. 131: 861-72, 2007 and Nakagawa M, et al. Nat Biotechnol. 26: 101-6, 2008). PA6 cells (RIKEN BRC Cell Bank) were seeded on a gelatin-coated dish and then cultured using MEM alpha containing 10% FBS. Upon induction of differentiation, cells were cultured for at least one day, confirmed to be confluent, and then used as feeder cells. […] ES cells or iPS cells were cultured using STO cells as feeder cells. One day before the initiation of differentiation induction, 10 μM ROCK inhibitor (Y27632) was added into a medium. […] The dish was gently tapped to remove feeder cells. After washing once with PBS, the CTK dissociation solution was added again, followed by 10-15 minutes of incubation at 37° C. ES cells or iPS cells detached from the dish were suspended in 5 ml of differentiation medium (DMEM/Ham's F12 containing 5% knockout serum replacement (KSR), 2 mM L-glutamine, non-essential amino acids, and 1 μM 2-mercaptoethanol (2-ME)). After centrifugation, supernatants were removed. Again, the cells were suspended in 1 ml of the differentiation medium and then separated from each other by pipetting, so as to result in small aggregates (10-20 cells/clump). The obtained small aggregates were seeded on dishes having PA6 as feeder cells at concentrations ranging from 2500 to 5000 cells/cm^2. As a medium, a differentiation medium containing 2 μM Dorsomorphin (Sigma) and/or 10 μM SB431542 (Sigma) and/or 300 ng/ml Noggin (HZ-1026: HumanZyme) or 2 μl/well DMSO was used. 10 μM Y27632 was added only in the initial culture. Medium exchange was not performed until day 7, and it was then performed once every 3 to 4 days. On day 14 after differentiation induction, cells were fixed with 4% PFA for 30 minutes at 4° C. and then immunostained in PBS with each antibody listed in Table 1. […]

The test system of experiment [2] is iPS cells (G4). As to the kind of experiment: Differentiation of iPS cells into neural precursor cells on PA6 feeder cells (SDIA method), immunostaining. The note with it: day 14, PA6 feeder cells; for Nestin and Oct3/4 immunostaining of colonies: 2 μM Dorsomorphin and/or 10 μM SB431542. The protocol: Human ES cells (KhES-1, KhES-2, and KhES-3) from the Institute for Frontier Medical Sciences, Kyoto University were provided, and they were then cultured by the known method (Suemori H, et al. Biochem Biophys Res Commun. 345: 926-32, 2006). Human iPS cells (G1, G4, B6, and B7) were provided by Dr. Yamanaka of Kyoto University and then cultured by the known method (Takahashi K, et al. Cell. 131: 861-72, 2007 and Nakagawa M, et al. Nat Biotechnol. 26: 101-6, 2008). PA6 cells (RIKEN BRC Cell Bank) were seeded on a gelatin-coated dish and then cultured using MEM alpha containing 10% FBS. Upon induction of differentiation, cells were cultured for at least one day, confirmed to be confluent, and then used as feeder cells. Human iPS cells (404C2) was established by introducing reprogramming factors (OCT3/4, SOX2, KLF4, L-MYC, LIN28, and shRNA for p53) into human fibroblast using a vector containg EBNA-1 and oriP (U.S. 61/232,402 and U.S. 61/307,306), then cultured by same method of other human iPS cells.
ES cells or iPS cells were cultured using STO cells as feeder cells. One day before the initiation of differentiation induction, 10 μM ROCK inhibitor (Y27632) was added into a medium. CTK dissociation solution (0.25% Trypsin, 1 mg/ml Collagenase and KSR 20%, and 1 mM CaCl2) was added at 500 μl/10 cm dish, followed by 3 to 5 minutes of incubation at 37° C. The dish was gently tapped to remove feeder cells. After washing once with PBS, the CTK dissociation solution was added again, followed by 10-15 minutes of incubation at 37° C. ES cells or iPS cells detached from the dish were suspended in 5 ml of differentiation medium (DMEM/Ham's F12 containing 5% knockout serum replacement (KSR), 2 mM L-glutamine, non-essential amino acids, and 1 μM 2-mercaptoethanol (2-ME)). After centrifugation, supernatants were removed. Again, the cells were suspended in 1 ml of the differentiation medium and then separated from each other by pipetting, so as to result in small aggregates (10-20 cells/clump).
The obtained small aggregates were seeded on dishes having PA6 as feeder cells at concentrations ranging from 2500 to 5000 cells/cm^2. As a medium, a differentiation medium containing 2 μM Dorsomorphin (Sigma) and/or 10 μM SB431542 (Sigma) and/or 300 ng/ml Noggin (HZ-1026: HumanZyme) or 2 μl/well DMSO was used. 10 μM Y27632 was added only in the initial culture. Medium exchange was not performed until day 7, and it was then performed once every 3 to 4 days.
On day 14 after differentiation induction, cells were fixed with 4% PFA for 30 minutes at 4° C. and then immunostained in PBS with each antibody listed in Table 1.

In experiment [3] the test system is KhES-5 cells. As to the kind of experiment: Optimal concentration of LDN-193189 with SB431542 (SDIA method), KhES-5. The note with it: day 14, with SB431542, PA6 cells. The method, then: Differentiation was induced by co-culturing an ES cell line (Kh-ES5) with PA6 cells according to the SDIA method, then culturing the cells in a medium supplemented with 5-500 nM LDN-193189 and SB431542.
On one day before the initiation of differentiation induction, CTK dissociation solution (0.25% Trypsin, 1 mg/ml Collagenase and KSR 20%, and 1 mM CaCl2) was added to ES cells (KhES-1, KhES-4, and KhES-5), colonies were dissociated. ES cells detached from the dish were subjected to removal of MEF on gelatin coating, suspended in a differentiation medium (DMEM/Ham's F12 containing 5% knockout serum replacement (KSR), 2 mM L-glutamine, non-essential amino acids, and 1 μM 2-mercaptoethanol (2-ME)) for 1 hour, and then separated by pipetting so as to result in small aggregates (10-20 cells/clump). The obtained small aggregates were seeded on PA6 at a concentration ranging from 2500 to 5000 cells/cm^2. On day 4 of culture, the medium was exchanged with a differentiation medium supplemented with 10 μM SB431542 and 5-1,000 nM LDN-193189. Three days later, the medium was exchanged with a differentiation medium without SB431542 and LDN-193189. Thereafter, medium exchanges with such a differentiation medium without SB431542 and LDN-193189 were performed at 2- to 3-day intervals. […]

Experiment [4] deals with KhES-1 cell line and KhES-4 cell line. As to the kind of experiment: Optimal concentration of LDN-193189 with SB431542 (SDIA method), KhES-1 and KhES-4. The note with it: day 14, with SB431542, PA6 cells. The method, then:
On one day before the initiation of differentiation induction, CTK dissociation solution (0.25% Trypsin, 1 mg/ml Collagenase and KSR 20%, and 1 mM CaCl2) was added to ES cells (KhES-1, KhES-4, and KhES-5), colonies were dissociated. ES cells detached from the dish were subjected to removal of MEF on gelatin coating, suspended in a differentiation medium (DMEM/Ham's F12 containing 5% knockout serum replacement (KSR), 2 mM L-glutamine, non-essential amino acids, and 1 μM 2-mercaptoethanol (2-ME)) for 1 hour, and then separated by pipetting so as to result in small aggregates (10-20 cells/clump). The obtained small aggregates were seeded on PA6 at a concentration ranging from 2500 to 5000 cells/cm^2. On day 4 of culture, the medium was exchanged with a differentiation medium supplemented with 10 μM SB431542 and 5-1,000 nM LDN-193189. Three days later, the medium was exchanged with a differentiation medium without SB431542 and LDN-193189. Thereafter, medium exchanges with such a differentiation medium without SB431542 and LDN-193189 were performed at 2- to 3-day intervals.
Human ES cells (KhES-1, KhES-4, and KhES-5) were subjected to differentiation induction performed by a stromal cell-derived inducing activity method (SDIA method) using LDN-193189 at a concentration ranging from 5 nM to 1000 nM, in order to determine an optimal concentration of LDN-193189.

With `c1cc(-c2cnn3cc(-c4ccc(OCCN5CCCCC5)cc4)cnc23)ccn1` [Dorsomorphin, 6-[4-(2-piperidin-1-yl-ethoxy)phenyl]-3-pyridin-4-yl-pyrazolo[1,5-a]pyrimidine], the “Number of colonies per well compared with control group or Noggin group” value in experiment [1] is given as “significantly higher”. Moreover, in experiment [2], the “Immunostaining for undifferentiation markers Nanog or SSEA3 and neural markers Pax6 or PSA-NCAM” value is “undifferentiated cells and neural precursor cells coexisted”; the “Nestin and Oct3/4 immunostaining of colonies” value was “colonies positive for both Nestin and Oct3/4 were confirmed”.
Turning to `c1ccc2c(-c3cnn4cc(-c5ccc(N6CCNCC6)cc5)cnc34)ccnc2c1` [LDN-193189, 4-(6-(4-(piperazin-1-yl)phenyl)pyrazolo[1,5-a]pyrimidin-3-yl)quinoline], in experiment [3], the “Concentration of LDN-193189 at which differentiation into neural precursor cells was induced relatively successfully (Nestin staining)” value is recorded as at least 50 nM and the “Increase of effect at LDN-193189 concentration higher than 50 nM” value is given as “not observed that the effect was increased”. In addition, in experiment [4], the “Concentration of LDN-193189 at which cells were stained to the highest degree with Pax6” value came to 20 nM.
In the case of `NC(=O)c1ccc(-c2nc(-c3ccc4c(c3)OCO4)c(-c3ccccn3)[nH]2)cc1` [SB431542, 4-[4-(1,3-benzodioxol-5-yl)-5-(2-pyridinyl)-1H-imidazol-2-yl]benzamide], in experiment [1], the “Elimination of undifferentiated cells (Nestin-positive vs Oct3/4-positive colonies)” value is given as “effective in elimination of undifferentiated cells” and the “Number of colonies per well compared with control group or Noggin group” value is “significantly higher”. Besides, in experiment [2], the “Immunostaining for undifferentiation markers Nanog or SSEA3 and neural markers Pax6 or PSA-NCAM” value was “neural precursor cells appeared in aggregated cell populations”; the “Nestin and Oct3/4 immunostaining of colonies” value is recorded as “aggregated cell populations were positive for Nestin”.
